According to patent publication US10005767B2, “Compositions and methods for inhibition of the JAK pathway” (Rigel Pharmaceuticals, Inc., priority 2009, dated 2018):
Counter-ions that a name gives are not always drawn.

Test system: human primary T-cells, IL-2 stimulated proliferation (JAK-1 and JAK-3 dependent; reported as JAK3 activity)
Test: Human primary T-cell proliferation stimulated by IL-2 (Example 3)
Assay type: cell-based
Details: Homo sapiens, T-cell, tested under conditions described in Example 3 (IL-2 stimulated human primary T-cell proliferation); read-out: ability to inhibit JAK3 activity, IC50 range (Table V)
Method in brief: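 Peripheral-blood human T-cells pre-activated via TCR/CD28, IL-2-starved overnight, then cultured 72 h at 37 °C with compound in Yssel's medium containing IL-2 (80 U/mL in cell suspension). Proliferation read as viable-cell ATP by CellTiter-Glo luminescence; reduction versus control taken as JAK pathway inhibition.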

Row | SMILES | IC50 [nM]
1 | Cc1cnc(Nc2ccc3c(c2)CN(CCC(C)C)C3)nc1Nc1ccc2oc(=O)[nH]c2c1 [III-9, N4-(benzo[d]oxazol-2(3H)-on-5-yl)-N2-(2-isopentylisoindolin-5-yl)-5-methylpyrimidine-2,4-diamine] | < 500
2 | Cc1ccc(Nc2ncc(C)c(Nc3ccc4oc(=O)[nH]c4c3)n2)nc1 [IV-52, 5-(5-methyl-2-(5-methylpyridin-2-ylamino)pyrimidin-4-ylamino)benzo[d]oxazol-2(3H)-one] | 500 to 5000
3 | Cc1cc(F)cc(Nc2ncc(C)c(Nc3ccc4oc(=O)[nH]c4c3)n2)c1 [Compound I-199, 5-[2-(3-Fluoro-5-methyl-phenylamino)-5-methyl-pyrimidin-4-ylamino]-3H-benzooxazol-2-one] | < 500
4 | COc1cc(Nc2ncc(C)c(Nc3ccc4oc(=O)[nH]c4c3)n2)ccc1-c1cccnc1 [Compound I-506, 5-(2-(3-methoxy-4-(pyridin-3-yl)phenylamino)-5-methylpyrimidin-4-ylamino)benzo[d]oxazol-2(3H)-one formate salt] | < 500
5 | Cc1cnc(Nc2ccc(N3CCN(C(=O)OC(C)(C)C)[C@@H](C)C3)nc2)nc1Nc1ccc2oc(=O)[nH]c2c1 [II-41, (S)-2-Methyl-4-{5-[5-methyl-4-(2-oxo-2,3-dihydro-benzooxazol-5-ylamino)-pyrimidin-2-ylamino]-pyridin-2-yl}-piperazine-1-carboxylic acid tert-butyl ester] | < 500
6 | COc1cc(C)cc(Nc2ncc(C)c(Nc3cc(C)c4oc(=O)n(COP(=O)(O)O)c4c3)n2)c1 [Compound I-536, Sodium (5-(2-(3-methoxy-5-methylphenylamino)-5-methylpyrimidin-4-ylamino)-7-methyl-2-oxobenzo[d]oxazol-3 (2H)-yl)methyl phosphate] | 5000 to 10000
7 | CCN(CC)CCOc1ccc(Nc2ncc(C)c(Nc3ccc4oc(=O)[nH]c4c3)n2)cc1 [Compound I-449, 5-{2-[4-(2-Diethylamino-ethoxy)-phenylamino]-5-methyl-pyrimidin-4-ylamino}-3H-benzooxazol-2-one] | < 500
8 | Cc1cnc(Nc2ccc3[nH]ncc3c2)nc1Nc1ccc2oc(=O)[nH]c2c1 [IV-6, N4-(benzo[d]oxazol-2(3H)-on-5-yl)-N2-(1H-indazol-5-yl)-5-methylpyrimidine-2,4-diamine] | < 500
9 | Cc1cnc(Nc2ccc(C(=O)NC3CCC3)c(C(F)(F)F)c2)nc1Nc1ccc2oc(=O)[nH]c2c1 [Compound I-218, N-cyclobutyl-4-(5-methyl-4-(2-oxo-2,3-dihydrobenzo[d]oxazol-5-ylamino)pyrimidin-2-ylamino)-2-(trifluoromethyl)benzamide] | < 500
10 | Cc1cnc(Nc2cccc(Cl)c2)nc1Nc1ccc2oc(=O)[nH]c2c1 [Compound I-173, 5-[2-(3-Chloro-phenylamino)-5-methyl-pyrimidin-4-ylamino]-3H-benzooxazol-2-one] | < 500
11 | Cc1cnc(Nc2cccc(OC(F)(F)F)c2)nc1Nc1ccc2oc(=O)[nH]c2c1 [Compound I-106, N4-(benzoxazolin-2-on-5-yl)-N2-(3-trifluoromethoxyphenyl)-5-methylpyrimidine-2,4-diamine trifluoroacetate salt] | < 500
12 | Cc1cnc(Nc2ccc(N3CCC(N(C)C)C3)nc2)nc1Nc1ccc2oc(=O)[nH]c2c1 (stereo not drawn) [II-80, 5-(2-(6-(3-(dimethylamino)pyrrolidin-1-yl)pyridin-3-ylamino)-5-methylpyrimidin-4-ylamino)benzo[d]oxazol-2(3H)-one] | < 500
13 | Cc1cnc(Nc2cccc(NS(C)(=O)=O)c2)nc1Nc1ccc2[nH]c(=O)[nH]c2c1 [Compound I-54, N2-(3-(methylsulfonylamino)phenyl)-N4-(1H-benzo[d]imidazol-2(3H)-on-5-yl)-5-methylpyrimidine-2,4-diamine] | < 500
14 | Cc1ccc(Nc2ncc(C)c(Nc3ccc4oc(=O)[nH]c4c3)n2)cc1 [Compound I-421, 5-(2-(p-toluidino)-5-methylpyrimidin-4-ylamino)benzo[d]oxazol-2(3H)-one] | < 500
15 | COc1cc(Nc2ncc(C)c(Nc3ccc4oc(=O)[nH]c4c3)n2)ccc1C(=O)N(C)C [Compound I-267, 2-methoxy-N,N-dimethyl-4-(5-methyl-4-(2-oxo-2,3-dihydrobenzo[d]oxazol-5-ylamino)pyrimidin-2-ylamino)benzamide] | < 500
16 | Cc1cnc(Nc2cc(C(C)O)ccc2F)nc1Nc1ccc2oc(=O)[nH]c2c1 (stereo not drawn) [Compound I-523, 5-(2-(2-fluoro-5-(1-hydroxyethyl)phenylamino)-5-methylpyrimidin-4-ylamino)benzo[d]oxazol-2(3H)-one] | < 500
17 | Cc1cnc(Nc2ccc(N3CCC(C)CC3)nc2)nc1Nc1ccc2oc(=O)[nH]c2c1 [II-6, N4-(benzo[d]oxazol-2(3H)-on-5-yl)-N2-(6-(4-methylpiperidin-1-yl)pyridin-3-yl)-5-methylpyrimidine-2,4-diamine] | > 10000
18 | Cc1cnc(Nc2ccc(N3CCN(C)CC3)nc2)nc1Nc1ccc2oc(=O)[nH]c2c1 [II-13, N4-(benzoxazolin-2-on-5-yl)-N2-[2-(4-methylpiperazin-1-yl)pyridin-5-yl]-5-methylpyrimidine-2,4-diamine] | < 500
19 | Cc1cnc(Nc2cccc(S(C)(=O)=O)c2)nc1Nc1cc(F)c2oc(=O)[nH]c2c1 [Compound I-249, 7-fluoro-5-(5-methyl-2-(3-(methylsulfonyl)phenylamino)pyrimidin-4-ylamino)benzo[d]oxazol-2(3H)-one] | < 500
20 | COc1cc(C)cc(Nc2ncc(C)c(Nc3cc(C)c4oc(=O)[nH]c4c3)n2)c1 [Compound I-428, 5-(2-(3-methoxy-5-methylphenylamino)-5-methylpyrimidin-4-ylamino)-7-methylbenzo[d]oxazol-2(3H)-one] | < 500
21 | Cc1ccccc1Nc1ncc(C)c(Nc2ccc3oc(=O)[nH]c3c2)n1 [Compound I-499, 5-(2-(o-toluidino)-5-methylpyrimidin-4-ylamino)benzo[d]oxazol-2(3H)-one] | 500 to 5000

Same assay, conditions: tested under conditions described in Example 3 (IL-2 stimulated human primary T-cell proliferation); read-out: ability to inhibit JAK3 activity, IC50 range (Table V)

Row | SMILES | IC50 [nM]
22 | Cc1cnc(Nc2ccc(OCC(N)=O)cc2)nc1Nc1ccc2oc(=O)[nH]c2c1 [Compound I-307, N2-(4-aminocarbonylmethoxy)phenyl-5-methyl-N4-(2-oxo-2,3-dihydro-1,3-benzoxazol-5-yl)-2,4-pyrimidinediamine] | < 500
23 | Cc1cnc(Nc2cccc(OCC(N)=O)c2)nc1Nc1ccc2oc(=O)[nH]c2c1 [Compound I-319, N2-[3-(aminocarbonylmethoxy)]phenyl-5-methyl-N4-(2-oxo-2,3-dihydro-1,3-benzoxazol-5-yl)-2,4-pyrimidinediamine] | < 500
24 | Cc1cnc(Nc2ccc(OC(F)(F)F)c(F)c2)nc1Nc1ccc2oc(=O)[nH]c2c1 [Compound I-376, N2-(3-fluoro-4-trifluoromethoxy)phenyl-5-methyl-N4-(2-oxo-2,3-dihydro-1,3-benzoxazol-5-yl)-2,4-pyrimidinediamine] | < 500
25 | Cc1cnc(Nc2cc(C)c(F)c(C)c2)nc1Nc1ccc2oc(=O)n(COP(=O)(OC(C)(C)C)OC(C)(C)C)c2c1 [Compound I-450, N4-{3-[bis(1,1-dimethylethoxy)]phosphinyloxymethyl-2-oxo-2,3-dihydro-1,3-benzoxazol-5-yl}-N2-(3,5-dimethyl-4-fluoro)phenyl-5-methyl-2,4-pyrimidinediamine] | > 10000
26 | Cn1c(=O)oc2cc(Nc3nc(Nc4cccc(NS(C)(=O)=O)c4)ncc3F)ccc21 [Compound I-61, N2-((3-methylsulfonylamino)phenyl)-N4-(3-methyl-2-oxo-2,3-dihydrobenzo[d]oxazol-6-yl)-5-fluoropyrimidine-2,4-diamine] | < 500
27 | Cc1cnc(Nc2ccc(NS(C)(=O)=O)cc2)nc1Nc1ccc2[nH]c(=O)oc2c1 [Compound I-103, N2-((4-methylsulfonylamino)phenyl)-N4-(2-oxo-2,3-dihydrobenzo[d]oxazol-6-yl)-5-methylpyrimidine-2,4-diamine] | > 10000
28 | Cc1cnc(Nc2cc(Cl)cc(OC(F)(F)F)c2)nc1Nc1ccc2oc(=O)[nH]c2c1 [Compound I-378, N2-(3-chloro-5-trifluoromethoxy)phenyl-5-methyl-N4-(2-oxo-2,3-dihydro-1,3-benzoxazol-5-yl)-2,4-pyrimidinediamine] | < 500
29 | Cc1cnc(Nc2ccc(N(C)S(C)(=O)=O)cc2)nc1Nc1ccc2c(c1)oc(=O)n2C [Compound I-95, N2-((4-methylsulfonyl-N-methylamino)phenyl)-N4-(3-methyl-2-oxo-2,3-dihydrobenzo[d]oxazol-6-yl)-5-methylpyrimidine-2,4-diamine] | < 500
30 | Cc1ccc(Nc2ncc(C)c(Nc3ccc4oc(=O)[nH]c4c3)n2)cc1F [Compound I-363, N2-(3-fluoro-4-methyl)phenyl-5-methyl-N4-(2-oxo-2,3-dihydro-1,3-benzoxazol-5-yl)-2,4-pyrimidinediamine] | < 500
31 | Cc1cc(Nc2ncc(C)c(Nc3ccc4oc(=O)[nH]c4c3)n2)cc(OC(F)(F)F)c1 [Compound I-379, 5-methyl-N2-(3-methyl-5-trifluoromethoxy)phenyl-N4-(2-oxo-2,3-dihydro-1,3-benzoxazol-5-yl)-2,4-pyrimidinediamine] | < 500
32 | Cc1cnc(Nc2cc(OC(C)C)cc(C(F)(F)F)c2)nc1Nc1ccc2oc(=O)[nH]c2c1 [Compound I-372, N2-(3-isopropoxy-5-trifluoromethyl)phenyl-5-methyl-N4-(2-oxo-2,3-dihydro-1,3-benzoxazol-5-yl)-2,4-pyrimidinediamine] | < 500

Same assay, conditions: tested under conditions described in Example 3 (IL-2 stimulated human primary T-cell proliferation); trifluoroacetic acid salt; read-out: ability to inhibit JAK3 activity, IC50 range (Table V)

Row | SMILES | IC50 [nM]
33 | Cc1cnc(Nc2ccncc2F)nc1Nc1ccc2oc(=O)[nH]c2c1 [IV-64, N2-(3-fluoropyridin-4-yl)-5-methyl-N4-(2-oxo-2,3-dihydro-1,3-benzoxazol-5-yl)-2,4-pyrimidinediamine trifluoroacetic acid salt] | 500 to 5000
